The test system of one data set is Citrobacter freundii. In words: MIC, standard microplate agar assay, PYG agar pH 6 (aerobic bacteria). As to conditions: UC3507, 24 h; Citrobacter freundii UC 3507, pH 6; read-out: MINIMAL INHIBITORY CONCENTRATION
Type of data set: cell-based. Here is the method:
(§1) The antibacterial assay is a standard microplate agar assay using PYG agar, pH 6. PYG agar consists of the following ingredients:
(§2) The MIC is determined by standard methods. The inocula are overnight cultures of the test organisms, diluted so that the final population contains approximately 10^5 cells/ml. The agar plates are incubated at 28°C to 37°C for 24 hrs. The lowest antibiotic concentration which allows no growth=MIC or minimum inhibitory concentration.
(§3) The MIC is determined by standard methods. The inocula are overnight cultures of the test organisms, diluted so that the final population contains approximately 10^5 cells/ml. The agar plates are incubated at 28°C to 37°C for 24 hrs. The lowest antibiotic concentration which allows no growth-HIC or minimum inhibitory concentration.

For the next data set, the system named is Enterobacter cloacae. Described as above. Type of data set: cell-based. As to conditions: read-out: MINIMAL INHIBITORY CONCENTRATION
Here is the method:
as §1, §2, §3

In a further data set the test system is Escherichia coli. The description is as above. Format: cell-based. As to conditions: read-out: MINIMAL INHIBITORY CONCENTRATION
The method, then:
as §1, §2, §3

The test system of a further data set is Klebsiella oxytoca. Described as above. Format: cell-based. The note with it: read-out: MINIMAL INHIBITORY CONCENTRATION
The method, then:
as §1, §2, §3

For the next data set, the system named is Klebsiella pneumoniae. Described as above. As to conditions: UC58, 24 h; Klebsiella pneumoniae UC 58, pH 6; read-out: MINIMAL INHIBITORY CONCENTRATION
Type of data set: cell-based. Here is the method: as §1, §2, §3

The next data set has as its system Proteus vulgaris. Described as above. Type of data set: cell-based. The note with it: UC30264, 24 h; Proteus vulgaris UC 30264, pH 6; read-out: MINIMAL INHIBITORY CONCENTRATION
The method, then:
as §1, §2, §3

Another data set deals with Pseudomonas aeruginosa. The data set is described as above. Type of data set: cell-based. As to conditions: read-out: MINIMAL INHIBITORY CONCENTRATION
Here is the method:
as §1, §2, §3

The test system of a further data set is Serratia marcescens. Described as above. Format: cell-based. As to conditions: for MIC: Serratia marcescens, UC6888, 24 h, pH 6, Serratia marcescens UC 6888, pH 6, read-out: MINIMAL INHIBITORY CONCENTRATION
Here is the method:
as §1, §2, §3

The next data set has as its system Staphylococcus aureus. The description is as above. Type of data set: cell-based. The note with it: read-out: MINIMAL INHIBITORY CONCENTRATION
The method, then:
as §1, §2, §3

In the next data set the test system is Streptococcus faecalis. Described as above. The note with it: Enterococcus faecalis, UC694, 24 h; Streptococcus faecalis UC 694, pH 6; read-out: MINIMAL INHIBITORY CONCENTRATION
Format: cell-based. The method, then:
as §1, §2, §3

A short description of data set [1]: Solubility (characterization). The note with it: solvents as named in the value. Format: physicochemical.
For data set [2], the system named is Staphylococcus aureus U.C. 6685. The data set can be described thus: Antibacterial activity in vivo, experimentally infected mouse. As to conditions: sc, dosed subcutaneously, infected experimentally with Staphylococcus aureus U.C. 6685, read-out: CD50 (the source's name).
[3] abbreviates: UC9381, 24 h, Enterobacter cloacae UC 9381, pH 6.
[4] abbreviates: UC9382, 24 h, Enterobacter cloacae UC 9382, pH 6.
[5] abbreviates: UC311, 24 h, Escherichia coli UC 311, pH 6.
[6] abbreviates: UC9379, 24 h, Escherichia coli UC 9379, pH 6.
Setting [7] is: UC9380, 24 h, Escherichia coli UC 9380, pH 6.
Setting [8] is: UC9383, 24 h, Klebsiella oxytoca UC 9383, pH 6.
The mark [9] stands for this setting: UC9384, 24 h, Klebsiella oxytoca UC 9384, pH 6.
[10] abbreviates: UC6432, 24 h, Pseudomonas aeruginosa UC 6432, pH 6.
Where [11] appears, read: UC9191, 24 h, Pseudomonas aeruginosa UC 9191, pH 6.
Where [12] appears, read: UC3665, 24 h, Staphylococcus aureus UC 3665, pH 6.
[13] abbreviates: UC6675, 24 h, Staphylococcus aureus UC 6675, pH 6.
[14] abbreviates: UC6685, 24 h, Staphylococcus aureus UC 6685, pH 6.

In brackets after ≈: the same amount, converted by molar mass. Like-named read-outs stand apart in the source and are kept apart here.

As to `CC=C(N=C=S)C(=O)OC1C(COC(C)=O)OC(C2(O)CC(=O)C(O)=C(C(N)=O)C2=O)C(O)C1OC1CC(OC)C(O)(C(C)OC(=O)CC(C)C)C(C)O1` (stereo not drawn) [Paulomycin A2], the MIC with Citrobacter freundii, with Enterobacter cloacae (setting [3]), in the data set on Enterobacter cloacae (setting [4]), with Escherichia coli (setting [5]), in the data set with Escherichia coli (setting [6]) and in the data set on Escherichia coli (setting [7]) was above 64 µg/mL throughout. The MIC in the data set on Klebsiella oxytoca (setting [8]) was above 64 µg/mL; with Klebsiella oxytoca (setting [9]), above 64 µg/mL; with Klebsiella pneumoniae it was above 64 µg/mL; in the data set with Proteus vulgaris, 32 µg/mL (≈ 40.7 µM); in the data set on Pseudomonas aeruginosa (setting [10]), above 64 µg/mL; with Pseudomonas aeruginosa (setting [11]), above 64 µg/mL. Also, the MIC in the data set on Serratia marcescens is above 64 µg/mL; in the data set on Staphylococcus aureus (setting [12]), 0.12 µg/mL (≈ 0.153 µM); in the data set with Staphylococcus aureus (setting [13]), 0.12 µg/mL (≈ 0.153 µM); in the data set with Staphylococcus aureus (setting [14]), 0.12 µg/mL (≈ 0.153 µM); in the data set on Streptococcus faecalis, 0.25 µg/mL (≈ 0.318 µM). Further, the Solubility result in data set [1] is “Soluble in lower alcohols, ketones, ethyl acetate, chloroform, methylene chloride; less soluble in ether; insoluble in saturated hdyrocarbon solvents”.
As for `CC=C(N=C=S)C(=O)OC1C(COC(C)=O)OC(C2(O)CC(=O)C(O)=C(C(N)=O)C2=O)C(O)C1OC1CC(OC)C(O)(C(C)OC(=O)C(C)CC)C(C)O1` (stereo not drawn) [Paulomycin A], the MIC in the data set with Citrobacter freundii, with Enterobacter cloacae (setting [3]), in the data set with Enterobacter cloacae (setting [4]), in the data set on Escherichia coli (setting [5]), with Escherichia coli (setting [6]) and with Escherichia coli (setting [7]) was above 64 µg/mL in each case. The MIC is above 64 µg/mL in the data set with Klebsiella oxytoca (setting [8]); above 64 µg/mL with Klebsiella oxytoca (setting [9]); above 64 µg/mL in the data set with Klebsiella pneumoniae; 16 µg/mL (≈ 20.3 µM) in the data set on Proteus vulgaris; above 64 µg/mL in the data set with Pseudomonas aeruginosa (setting [10]); above 64 µg/mL in the data set with Pseudomonas aeruginosa (setting [11]). For the same compound, the MIC was above 64 µg/mL in the data set with Serratia marcescens; 0.12 µg/mL (≈ 0.153 µM) with Staphylococcus aureus (setting [12]); 0.12 µg/mL (≈ 0.153 µM) in the data set with Staphylococcus aureus (setting [13]); 0.12 µg/mL (≈ 0.153 µM) in the data set with Staphylococcus aureus (setting [14]); 0.25 µg/mL (≈ 0.318 µM) with Streptococcus faecalis. Moreover, the “MINIMAL INHIBITORY CONCENTRATION” value in the data set with Serratia marcescens (Serratia marcescens UC 6888, pH 6) was 64 µg/mL.
Consider `CC=C(N=C=S)C(=O)OC1C(COC(C)=O)OC(C2(O)CC(=O)C(O)=C(C(N)=O)C2=O)C(O)C1OC1CC(OC)C(O)(C(C)=O)C(C)O1` (stereo not drawn) [Paulomycin E], for which the MIC with Citrobacter freundii, in the data set on Enterobacter cloacae (setting [3]), in the data set on Enterobacter cloacae (setting [4]), with Escherichia coli (setting [5]), in the data set with Escherichia coli (setting [6]) and in the data set on Escherichia coli (setting [7]) was above 64 µg/mL each time. The MIC with Klebsiella oxytoca (setting [8]), in the data set with Klebsiella oxytoca (setting [9]), in the data set on Klebsiella pneumoniae, in the data set on Proteus vulgaris, in the data set on Pseudomonas aeruginosa (setting [10]) and in the data set with Pseudomonas aeruginosa (setting [11]) was above 64 µg/mL in each case. Moreover, the MIC with Serratia marcescens was above 64 µg/mL; in the data set on Staphylococcus aureus (setting [12]), 1 µg/mL (≈ 1.43 µM); in the data set on Staphylococcus aureus (setting [13]), 1 µg/mL (≈ 1.43 µM); in the data set on Staphylococcus aureus (setting [14]) it was 1 µg/mL (≈ 1.43 µM); in the data set on Streptococcus faecalis, 1 µg/mL (≈ 1.43 µM). For the same compound, the Solubility result in data set [1] is “Soluble in lower alcohols, ketones, ethyl acetate, chloroform, methylene chloride; less soluble in ether; insoluble in saturated hdyrocarbon solvents”.
Regarding `CCC(C)C(=O)OC(C)C1(O)C(C)OC(OC2C(O)C(C3(O)CC(=O)C(O)=C(C(N)=O)C3=O)OC(COC(C)=O)C2OC(=O)C(NC(=S)SC[C@H](NC(C)=O)C(=O)O)C(C)SCCO)CC1OC` (stereo partly drawn) [R2=CH2CH2OH R3=CH2CHCOOH | NHCOCH3], in [2], the ED50 came out at 15.3 mg/kg.
Turning to `CCC(C)C(=O)OC(C)C1(O)C(C)OC(OC2C(O)C(C3(O)CC(=O)C(O)=C(C(N)=O)C3=O)OC(COC(C)=O)C2OC(=O)C(NC(=S)SCCO)C(C)SC[C@H](NC(C)=O)C(=O)O)CC1OC` (stereo partly drawn) [R2=CH2CHCOOH | NHCOCH3 R3=CH2CH2OH], the ED50 in [2] is 8 mg/kg.
Regarding `CCC(C)C(=O)OC(C)C1(O)C(C)OC(OC2C(O)C(C3(O)CC(=O)C(O)=C(C(N)=O)C3=O)OC(COC(C)=O)C2OC(=O)C(NC(=S)SCCO)C(C)SC(CC(=O)O)C(=O)O)CC1OC` (stereo not drawn) [R2=CHCOOH | CH2COOH R3=CH2CH2OH], the ED50 in data set [2] was 44 mg/kg.
